Assay results from EP1956016A1, “Bicyclic acyltryptophanols” (Bayer Schering Pharma Aktiengesellschaft, priority 2006, dated 2008).

Biological target: T1, human FSH receptor (Homo sapiens, UniProt P23945)
T1 construct: expressed in transfected cells; host or cells: CHO cells (hFSHR clone 16)
T1 sequence (P23945 18-695): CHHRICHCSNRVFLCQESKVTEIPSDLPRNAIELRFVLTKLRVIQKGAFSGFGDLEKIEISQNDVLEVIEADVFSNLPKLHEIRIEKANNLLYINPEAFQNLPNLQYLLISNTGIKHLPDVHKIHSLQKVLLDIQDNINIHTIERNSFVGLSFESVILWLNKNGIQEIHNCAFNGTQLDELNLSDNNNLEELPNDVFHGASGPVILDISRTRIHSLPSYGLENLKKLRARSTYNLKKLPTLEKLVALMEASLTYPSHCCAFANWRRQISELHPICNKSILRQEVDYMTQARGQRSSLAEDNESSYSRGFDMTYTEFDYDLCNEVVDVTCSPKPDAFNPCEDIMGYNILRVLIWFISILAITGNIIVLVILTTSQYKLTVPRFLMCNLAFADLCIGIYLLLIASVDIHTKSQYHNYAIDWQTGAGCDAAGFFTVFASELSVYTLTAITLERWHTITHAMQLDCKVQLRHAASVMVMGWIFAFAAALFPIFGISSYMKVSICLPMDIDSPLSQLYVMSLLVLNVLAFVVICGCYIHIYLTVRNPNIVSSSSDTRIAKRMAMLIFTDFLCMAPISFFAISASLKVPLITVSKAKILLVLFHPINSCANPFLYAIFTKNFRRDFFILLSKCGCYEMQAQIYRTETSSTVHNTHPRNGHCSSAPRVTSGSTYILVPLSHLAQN
Assay: HTRF assay for measuring cAMP in cells (FSH antagonism)
Type: cell-based
Settings: hFSHR clone 16 cells (CHO cells stably transfected with the human FSH receptor); in the presence of 1 e-9 mol/l hFSH; 37°C for 2h
Protocol: HTRF assay for measuring cAMP in cells
The method is based on a competitive immunoassay between native cAMP, which has been produced by the cells, and cAMP which is labelled with XL665. The tracer binding was visualized by a monoclonal antibody, anti-cAMP labelled with cryptate [HTRF = homogeneous time-resolved fluorescence].
The specific signal is inversely proportional to the cAMP concentration of the samples employed.
The 665nm/ 620nm fluorescence ratio was evaluated.
The following material was used: 96-well plates for the tissue culture, 96-well plates with black edge and black base (e.g. Fluotrac 600 from Greiner), 96-well plates for the substance dilutions of polypropylene and CAMP Femtomolar (4000wells Kit, CIS Bio International # 62AM1PEC).
The following reagents were used: BSA (bovine serum albumin) Fraction V protease-free, IBMX (3-isobutyl-1-methylxanthine), hFSH (human follicle stimulating hormone), Triton X-100 analytical grade, potassium fluoride analytical grade, G 418 (Geneticin) and Accutase.
Buffer 1 (washing and testing buffer) contained PBS, 1 mM CaCl2, 1 mM MgCl2, 0.2% glucose; 0.1% BSA, 1 mM IBMX.
Buffer 2 (2x lysis buffer) contained 1 % Triton X-100 in PBS (without CaCl2 and MgCl2).
Buffer 3 (assay buffer) contained 50 mM potassium phosphate buffer (pH 7.0); 800 mM potassium fluoride; 0.2% BSA (always added fresh).
On day 1, the cells were seeded in 96-well plates (3x10^4 cells per well hFSHR clone 16 cells (CHO cells stably transfected with the human FSH receptor in 150 µl of medium). The next day, test substance dilutions were made up. For this purpose, all the substances were diluted in ice-cold buffer 1 (with or without hFSH), and the substance dilutions were placed on ice until applied to the cells.
The cell supernatant was then aspirated off, and the cells were washed 2x with 200 µl of buffer 1. The cells were treated with 60 µl of the appropriate substance concentrations at 37°C for 2h. The cells were then lysed with 60 µl of buffer 2 (put onto the supernatant) (on a plate shaker at RT for 30 min).
The test conjugates (XL-665 and anti-cAMP cryptate) were diluted in buffer 3 in accordance with the manufacturers' information. The actual mixture for measurement was pipetted into a black 96-well plate (in each case 15 µl of the cell lysate diluted with 35 µl of buffer 1; firstly 25 µl of XL-665 conjugate were pipetted and, after 10 min, 25 µl of the anti-cAMP cryptate were added). This is followed by incubation at RT for 90 minutes. The measurement was carried out in a PheraStar (BMG).
Tissue culture conditions
1) hFSHr clone 16 Ham's F12 PSG 10% FCS 700 µg/ml G 418 (Geneticin) from PAA.
Dose-effect curve (hFSH) for the human receptor: 1 e-8, 3e-9, 1 e-9, 3e-10, 1e-10, 3e-11, 1e-11, 3e-12 mol/l.
The test substances were employed in suitable dilutions in the absence (test for agonism) and in the presence of 1 e-9 mol/l hFSH.
The values of the well ratio were averaged and then entered directly in SigmaPlot versus the concentrations. The maximum and minimum values were determined for each plate, and half the difference is to be regarded as IC50.

Compound | IC50 [nM]
CNC(=O)c1cc(F)cc(-c2cc3c(c(C(=O)N[C@@H](CO)Cc4c[nH]c5ccccc45)c2)OC(C)(C)C=C3)c1 [Example 8, 6-(3-Fluoro-5-methylcarbamoyl-phenyl)-2,2-dimethyl-2H-chromene-8-carboxylic acid [(R)-2-hydroxy-1-(1 H-indol-3-yl-methyl)-ethyl]-amide] | 14
Cc1ccccc1C#Cc1cc2c(c(C(=O)N[C@@H](CO)Cc3c[nH]c4ccccc34)c1)OCC=C2 [Example 4, 6-o-Tolylethynyl-2H-chromene-8-carboxylic acid [(R)-1-hydroxymethyl-2-(1H-indol-3-yl)-ethyl]-amide] | 450
CNC(=O)c1ccc(-c2cc3c(c(C(=O)N[C@@H](CO)Cc4c[nH]c5ccccc45)c2)OCC=C3)cc1Cl [Example 2, 6-(3-Chloro-4-methylcarbamoyl-phenyl)-2H-chromene-8-carboxylic acid [(R)-2-hydroxy-1-(1H-indol-3-ylmethyl)-ethyl]-amide] | 130
C=CC1Cc2cc(-c3ccc(OC)c(OC)c3)cc(C(=O)N[C@@H](CO)Cc3c[nH]c4ccccc34)c2O1 (mixture of isomers) [Example 12, 5-(3,4-Dimethoxy-phenyl)-2-vinyl-2,3-dihydro-benzofuran-7-carboxylic acid [(R)-1-hydroxymethyl-2-(1H-indol-3-yl)-ethyl]-amide] | 350

Continued, values first:

IC50 [nM] | Compound
450 | CNC(=O)c1ccc(-c2cc3c(c(C(=O)N[C@@H](CO)Cc4c[nH]c5ccccc45)c2)OCCO3)cc1Cl [Example 14, 7-(3-Chloro-4-methylcarbamoyl-phenyl)-2,3-dihydro-benzo[1,4]dioxine-5-carboxylic acid [(R)-2-hydroxy-1-(1 H-indol-3-ylmethyl)-ethyl]-amide]
2000 | COc1cc(-c2cc3c(c(C(=O)N[C@@H](CO)Cc4c[nH]c5ccccc45)c2)OCC3)cc(F)c1F [Example 20, 5-(3,4-Difluoro-5-methoxy-phenyl)-2,3-dihydro-benzofuran-7-carboxylic acid [(R)-2-hydroxy-1-(1H-indol-3-ylmethyl)-ethyl]-amide]
150 | CCC1Cc2cc(-c3ccc(OC)c(OC)c3)cc(C(=O)N[C@@H](CO)Cc3c[nH]c4ccccc34)c2O1 (stereo partly drawn) [Example 13, 5-(3,4-Dimethoxy-phenyl)-2-ethyl-2,3-dihydro-benzofuran-7-carboxylic acid [(R)-1-hydroxymethyl-2-(1H-indol-3-yl)-ethyl]-amide]
